Test results taken from patent US8410138B2, “Compounds for activating TGF-beta signaling” (The Board of Trustees of the Leland Stanford Junior …, priority 2007, dated 2013).
Like-named read-outs stand apart in the source and are kept apart here.

Legend:
[1] = tested on: TGF-β signaling (SBE-SEAP reporter) in MFB-F11 cells; type: cell-based, mouse; conditions: for Relative TGF-β activity, fold change compared with vehicle: cell reporter assay; for TGF-β agonist activity: data of FIGS. 1A-1J
Protocol: All compounds were tested twice, in duplicate, using the MFB-F11 cell line. 80 compounds were selected for further study based on induction of the reporter gene in any of the replicates. These compounds were tested again in MFB-F11 or C6-H4 cells, either alone or in the presence of 100 pg/ml of TGF-β1, to test for synergistic activities.

[2] = tested on: primary hippocampal neurons from E16 mouse embryos; type: cell-based; conditions: Aβ oligomers inducing 50-70% cell death; 13A04 3 μM, TGF-β1 10 ng/ml; 24 hours
Protocol: (§1) FIG. 1H is a graph showing the relative amount of surviving 6-7 DIV hippocampal neurons of E16 mice following exposure to culture medium (CM) alone, 13A04 (3 μM), or CM containing Aβ at 2 or 5 μM with TGF-β1 (10 ng/ml) or 13A04 (3 μM). After 24 hours, cultures were fixed and surviving cells were counted. Data represent mean±SEM, n=3-7 fields counted per plate. All conditions were compared to Aβ using the Mann-Whitney test (* p<0.05, ** p<0.01). FIG. 1I is a graph showing the relative gene expression levels of the indicated TGF-β-responsive genes induced in MFB-F11 fibroblasts stimulated with TGF-β1 (yellow) or 13A04 (blue) for 24 h. mRNA was extracted, labeled and hybridized to gene expression arrays tailored for the TGF-β pathway.
Moreover, the small-molecule TGF-β agonist was not toxic at 3 μM and 10 μM (not shown).
Primary mixed neuronal cultures are exposed to Aβ oligomers and treated with compounds (0 to 10 μM concentration) and cell survival is measured using lactate dehydrogenase (LDH) release or by counting 4,6-diamidino-2-phenylindole (DAPI)-stained cells. […] Neuritic dystrophy in 21 DIV neurons can also be measured by quantifying the tortuosity of neurites as described by Ferreira et al.^70 and modified by others. […] Further incubation of these cells with the present compounds provides a sensitive assay for neuroprotection.

[3] = tested on: TGF-β-responsive genes in MFB-F11 fibroblasts; assay: Microarray of TGF-β pathway gene expression in tgfb1−/− fibroblasts; type: cell-based, mouse; conditions: 1, 5, 24 hours
Protocol: as §1
A microarray assay was used to identify changes in gene expression caused by stimulating tgfb1^−/− fibroblasts with TGF-β1 or 13A04. mRNA was harvested 1, 5, and 24 hours following stimulation of tgfb1^−/− fibroblasts with TGF-β1 (or control) and analyzed for differential expression of 128 genes related to TGF-β signaling, using a commercially available filter array (Superarray Bioscience Corp.; FIG. 1I). […]

[4] = tested on: fibroblasts lacking Smad2, Smad3 or Smad4; assay: SBE reporter signaling in fibroblasts lacking elements of the TGF-β signaling pathway; type: cell-based; conditions: Smad4-lacking fibroblasts; FIG. 2D
Excerpt: To understand how the TGF-β signaling agonists function and identify molecular genetic targets in cells, fibroblasts lacking different elements of the TGF-β3 signaling pathway, including Smad2, Smad3, and Smad4, were used in combination with plasmids encoding different inhibitors of the TGF-β signaling pathway to study TGF-β agonists in different backgrounds. For reference, the canonical TGF-β signaling pathway is illustrated in FIG. 2A. The biological actions of TGF-β1 are mediated through interactions with the type 2 TGF beta receptor (TBR2) 2 and the type I TGF beta receptor (TBRI) 3. Betaglycan 4 may participate in the binding of TGF-β1. Receptor activation leads to the phosphorylation of Smad proteins, such as Smad 2/3 5 and Smad 4 6, which translocate to the nucleus 7 to bind to the Smad DNA-binding element (SBE) 8, present in numerous genes, in combination with transcription factors (TF) 9. Smad 7 10 is inhibitory with respect to Smad 2/3 5 phosphorylation. Alternative signaling involves p38 11 and the MAP kinase pathway. TAB1 12 activates TAK1 13, which activates p38 11.
Because Smad2 and Smad3 can substitute for each other, results with Smad2 or Smad3 knock-out fibroblasts were more difficult to interpret. Nonetheless, the synergistic effect of TGF-β1 and 11H was blocked in the absence of Smad2 (FIG. 2B) or Smad3 (not shown). In these assays, signaling is reported via SBE elements, which are specific elements that bind Smad proteins. Thus, the 11H compound must signal through this element. Without being limited to theory, it is believed that the 3A compound functions as a competitive agonist of Smad binding to the SBE, representing a novel target and mode of action.

[5] = tested on: TGF-β signaling (SBE-luc reporter) in brain; assay: Bioluminescence and tissue luciferase in SBE-luc reporter mice; type: in vivo, mouse; conditions: peripheral administration; FIG. 3E; indicates BBB passage
Excerpt: Transgenic mice harboring the SBE-luc reporter gene were generated and used to test the present compositions in vivo. These “reporter mice” mice express SBE-luc (i.e., “the transgene”) in all cells of the body.^1,54 Intraperitoneal injection of luciferin into SBE-luc mice produces bioluminescence generated by luciferase and photons penetrating the skull can be imaged using sensitive camera systems.^1,54
To determine whether 3A and its analogs are bioactive in vivo and able to penetrate the blood brain barrier (BBB), TGF-β1, 3A, 22B02, or 13A04 were injected into reporter mice i.p. or s.q. The animals were then sacrificed at the indicated times following injection. […] There was no obvious activation of the reporter in other organs.
Bioactivity data were confirmed by biochemical measurements of tissue luciferase in hippocampal homogenates (FIG. 3E).
Two-month old SBE-luciferase transgenic mice receive different concentrations of a test compound either s.q., i.p., or orally by gavage. […] Following administration of the test or control compounds, mice are injected with luciferin i.p. At, e.g., 2, 8, and 16 hours following injection of luciferin, the mice are imaged to detect bioluminescence as described above. Brains may be harvested 16 hours following test compound injection, and may be divided sagittally. […]

| Molecule | Relative TGF-β activity, fold change compared with vehicle ([1]; 3 μM) [fold] | Relative TGF-β activity, fold change compared with vehicle ([1]; 10 μM) [fold] | Relative TGF-β activity, fold change compared with vehicle ([1]; 30 μM) [fold] | Relative TGF-β activity, fold change compared with vehicle ([1]; 100 μM) [fold] | Protection of neurons against Aβ toxicity (survival) [2] | Expression of TGF-β signaling genes (Fos, Jun, Myc, Smad1, Smad2, Smad3, Interleukin-6) [3] | Signaling in the absence of Smad4 [4] | TGF-β signaling in vivo, tissue luciferase in hippocampal homogenates [5] | TGF-β agonist activity [1] |
| --- | --- | --- | --- | --- | --- | --- | --- | --- | --- |
| Cc1ccc(C(=O)N(CC(=O)N(CCc2c[nH]c3ccccc23)Cc2ccc(C(F)(F)F)cc2)C(C)C)cc1[N+](=O)[O-] [Compound 21F11] | 0.8 | 1.6 | 2.7 | 6.5 |  |  |  |  |  |
| COCCCN(CC(=O)N(CCc1c[nH]c2ccccc12)Cc1ccc(F)cc1)C(=O)c1ccc(C(F)(F)F)cc1 [Compound 22E02] | 1.4 | 4.7 | 8.6 | 9.1 |  |  |  |  |  |
| COCCCN(CC(=O)N(CCc1c[nH]c2ccccc12)Cc1ccc(C(F)(F)F)cc1)C(=O)C1CC1c1ccccc1 (stereo not shown) [Compound 21A08] | 1.1 | 1.5 | 1.9 | 2.7 |  |  |  |  |  |
| TGF-β1: recombinant transforming growth factor-β1, reference activator of the TGF-β signaling pathway |  |  |  |  | consistently protected neurons and increased survival | induced | blocked or strongly inhibited | activated TGF-β signaling in vivo |  |
| CC(C)(CCl)C(=O)N(CC(=O)N(CCc1c[nH]c2ccccc12)Cc1ccccc1)C1CC1 [Compound 44A04] | 1.2 | 2.3 | 2.7 | 2.8 |  |  |  |  |  |
| CCOC(=O)CNC(=O)Nc1ccc(N2CCN(c3ccccc3OC)CC2)c(C(=O)NC(C)c2ccccc2)c1 (stereo not shown) [Compound 5E, ethyl 2-(3-(4-(4-(2-methoxyphenyl)piperazin-1-yl)-3-(1-phenylethylcarbamoyl)phenyl)ureido)acetate] |  |  |  |  |  |  |  |  | TGF-β-agonists |
| COCCN(CC(=O)N(CCc1c[nH]c2ccccc12)Cc1ccccc1)C(=O)Cc1cccs1 [Compound 3A, N-(2-(1H-indol-3-yl)ethyl)-N-benzyl-2-(N-(2-methoxyethyl)-2-(thiophen-2-yl)acetamido)acetamide] | 1.7 | 2.9 | 5.2 | 11.4 |  |  | not affected (or was even stronger) |  | TGF-β-agonists |
| CC(C)N(CC(=O)N(CCc1c[nH]c2ccccc12)Cc1ccc(N(C)C)cc1)C(=O)C(Cl)Cl [Compound 23B08] | 1.1 | 1.8 | 3.1 | 4.5 |  |  |  |  |  |
| COCCN(CC(=O)N(CCc1c[nH]c2ccccc12)Cc1ccc(F)cc1)C(=O)C(C)Cl (stereo not shown) [Compound 13F03] | 1.3 | 1.9 | 3.8 | 9.1 |  |  |  |  |  |
| COCCCN(CC(=O)N(CCc1c[nH]c2ccccc12)Cc1ccc(F)cc1)C(=O)c1ccccc1Cl [Compound 22D03] | 1.4 | 3.7 | 8.3 | 8.8 |  |  |  |  |  |
| CC(C)N(CC(=O)N(CCc1c[nH]c2ccccc12)Cc1ccc(Cl)c(Cl)c1)C(=O)CC(C)(C)C [Compound 37C02] | 0.7 | 1.0 | 1.4 | 3.1 |  |  |  |  |  |
| COCCN(CC(=O)N(CCc1c[nH]c2ccccc12)Cc1ccc(F)cc1)C(=O)c1ccc(Cl)c([N+](=O)[O-])c1 [Compound 22B05] | 1.1 | 1.2 | 1.7 | 2.8 |  |  |  |  |  |
| COCCN(CC(=O)N(CCc1c[nH]c2ccccc12)Cc1ccc(OC)c(OC)c1)C(=O)C(Cl)Cl [Compound 24D04] | 1.2 | 1.1 | 1.5 | 2.7 |  |  |  |  |  |
| CCOC(=O)CCC(=O)N(CC(=O)N(CCc1c[nH]c2ccccc12)Cc1ccc(N(C)C)cc1)C(C)C [Compound 23D05] | 0.8 | 1.1 | 1.7 | 4.7 |  |  |  |  |  |
